The results in this text go back to patent US11161855B2, “Tricyclic fused thiophene derivatives as JAK inhibitors” (Incyte Corporation, priority 2012, dated 2021).

Molecules are shown by their SMILES.

The assay relates to human JAK1 (a.a. 837-1142). The assay is described as follows: In vitro JAK kinase assay (HTRF), JAK1. In kind it is biochemical. The settings on record: ratio of IC50s, 1 mM ATP. As for the experimental part:
Compounds herein were tested for inhibitory activity of JAK targets according to the following in vitro assay described in Park et al., Analytical Biochemistry 1999, 269, 94-104. The catalytic domains of human JAK1 (a.a. 837-1142), JAK2 (a.a. 828-1132) and JAK3 (a.a. 781-1124) were expressed using baculovirus in insect cells and purified. The catalytic activity of JAK1, JAK2 or JAK3 was assayed by measuring the phosphorylation of a biotinylated peptide. The phosphorylated peptide was detected by homogenous time resolved fluorescence (HTRF). IC50s of compounds were measured for each kinase in the 40 μL reactions that contain the enzyme, ATP and 500 nM peptide in 50 mM Tris (pH 7.8) buffer with 100 mM NaCl, 5 mM DTT, and 0.1 mg/mL (0.01%) BSA. For the 1 mM IC50 measurements, ATP concentration in the reactions was 1 mM. Reactions were carried out at room temperature for 1 hour and then stopped with 20 μL 45 mM EDTA, 300 nM SA-APC, 6 nM Eu-Py20 in assay buffer (Perkin Elmer, Boston, Mass.). Binding to the Europium labeled antibody took place for 40 minutes and HTRF signal was measured on a PHERA star plate reader (BMG, Cary, N.C.). The Example compounds were each tested in the Example A assay (see Table 1 for data for the compounds of the examples as tested by the assay of Example A at 1 mM ATP).
In general terms: In TR-FRET formats the signal depends on donor and acceptor labels being close together.
As to `CS(=O)(=O)NCc1nc2cnc3ccsc3c2n1[C@H]1CC[C@H](CC#N)CC1` [Example 18, N-({1-[trans-4-(Cyanomethyl)cyclohexyl]-1H-imidazo[4,5-d]thieno[3,2-b]pyridin-2-yl}methyl)methanesulfonamide], the JAK2/JAK1 is greater than 10.
To `CCOC(=O)NC[C@H]1CC[C@H](n2c([C@@H](C)O)nc3cnc4ccsc4c32)CC1` [Example 82, Ethyl [(trans-4-{2-[(1R)-1-hydroxyethyl]-1H-imidazo[4,5-d]thieno[3,2-b]pyridin-1-yl}cyclohexyl)methyl]carbamate] belongs greater than 10.
The value for `COC(=O)NC[C@H]1CC[C@H](n2c([C@@H](C)O)nc3cnc4ccsc4c32)CC1` [Example 78, Methyl [(trans-4-{2-[(1R)-1-hydroxyethyl]-1H-imidazo[4,5-d]thieno[3,2-b]pyridin-1-yl}cyclohexyl)methyl]carbamate] was greater than 10; that for `CC(C)c1nc2cnc3ccsc3c2n1[C@H]1CC[C@H](CC#N)CC1` [Example 27, [trans-4-(2-Isopropyl-1H-imidazo[4,5-d]thieno[3,2-b]pyridin-1-yl)cyclohexyl]acetonitrile] was greater than 10; that for `C[C@@H](O)c1nc2cnc3ccsc3c2n1C1CCNCC1F` (stereo partly drawn) [9 (2nd peak), (1R)-1-[1-(3-Fluoropiperidin-4-yl)-1H-imidazo[4,5-d]thieno[3,2-b]pyridin-2-yl]ethanol] was greater than 10.
To `Cc1nn2cnc3ccsc3c2c1-c1ccc(CC#N)cc1` [Example 46, [4-(8-Methylpyrazolo[1,5-c]thieno[2,3-e]pyrimidin-9-yl)phenyl]acetonitrile] belongs greater than 3.
As to `C[C@@H](O)c1nc2cnc3ccsc3c2n1[C@H]1CC[C@H](NCC(F)(F)F)CC1` [Example 4, (1R)-1-(1-{trans-4-[(2,2,2-Trifluoroethyl)amino]cyclohexyl}-1H-imidazo[4,5-d]thieno[3,2-b]pyridin-2-yl)ethanol], the JAK2/JAK1 is greater than 10.
To `C[C@@H](O)c1nc2cnc3ccsc3c2n1[C@H]1CC[C@H](CC#N)OC1` [Example 20, ((2R,5S)-5-{2-[(1R)-1-Hydroxyethyl]-1H-imidazo[4,5-d]thieno[3,2-b]pyridin-1-yl}tetrahydro-2H-pyran-2-yl)acetonitrile] belongs greater than 10; to `CCOC(=O)NC[C@H]1CC[C@H](n2c(CC#N)nc3cnc4ccsc4c32)CC1` [Example 87, Ethyl ({trans-4-[2-(cyanomethyl)-1H-imidazo[4,5-d]thieno[3,2-b]pyridin-1-yl]cyclohexyl}methyl)carbamate], greater than 10.
The value for `CC(=O)NC(C)c1nc2cnc3ccsc3c2n1[C@H]1CC[C@H](CC#N)OC1` (stereo partly drawn) [Example 69, N-(1-{1-[(3S,6R)-6-(Cyanomethyl)tetrahydro-2H-pyran-3-yl]-1H-imidazo[4,5-d]thieno[3,2-b]pyridin-2-yl}ethyl) acetamide] was greater than 10.
To `C[C@@H](O)c1nc2cnc3ccsc3c2n1[C@H]1CC[C@H](CC#N)[C@H](N)C1` [Example 67, ((1R,2R,4S)-2-Amino-4-{2-[(1R)-1-hydroxyethyl]-1H-imidazo[4,5-d]thieno[3,2-b]pyridin-1-yl}cyclohexyl)acetonitrile] belongs greater than 10; to `CCNC(=O)C[C@H]1CC[C@H](n2c([C@@H](C)O)nc3cnc4ccsc4c32)CC1` [Example 31, N-Ethyl-2-(trans-4-{2-[(1R)-1-hydroxyethyl]-1H-imidazo[4,5-d]thieno[3,2-b]pyridin-1-yl}cyclohexyl)acetamide], greater than 10.
Regarding `C[C@@H](O)c1nc2cnc3ccsc3c2n1[C@H]1CC[C@H](CF)CC1` [Example 12, (1R)-1-{1-[trans-4-(Fluoromethyl)cyclohexyl]-1H-imidazo[4,5-d]thieno[3,2-b]pyridin-2-yl}ethanol], the JAK2/JAK1 is listed as greater than 10.
The value for `N#CC[C@H]1CC[C@H](n2c(C3CNC3)nc3cnc4ccsc4c32)CC1` [Example 28, [trans-4-(2-Azetidin-3-yl-1H-imidazo[4,5-d]thieno[3,2-b]pyridin-1-yl)cyclohexyl]acetonitrile] was greater than 7; that for `C[C@@H](O)c1nc2cnc3ccsc3c2n1C1CCN(CCCC(F)(F)F)CC1` [Example 60, (1R)-1-{1-[1-(4,4,4-Trifluorobutyl)piperidin-4-yl]-1H-imidazo[4,5-d]thieno[3,2-b]pyridin-2-yl}ethanol] was greater than 10; that for `N#CCc1nc2cnc3ccsc3c2n1[C@H]1CC[C@@H](CC#N)OC1` [Example 74, {(2S,5S)-5-[2-(Cyanomethyl)-1H-imidazo[4,5-d]thieno[3,2-b]pyridin-1-yl]tetrahydro-2H-pyran-2-yl}acetonitrile] was greater than 10.
`C[C@@H](O)c1nc2cnc3ccsc3c2n1C1CCC(NCCC#N)CC1` (single isomer, unassigned) [30 (second peak)]: the JAK2/JAK1 is given as greater than 10.
To `CCc1nc2cnc3ccsc3c2n1[C@H]1CC[C@H](CC#N)OC1` [Example 39, [(2R,5S)-5-(2-Ethyl-1H-imidazo[4,5-d]thieno[3,2-b]pyridin-1-yl)tetrahydro-2H-pyran-2-yl]acetonitrile] belongs greater than 10; to `C[C@@H](O)c1nc2cnc3ccsc3c2n1C1CCN(CC#N)CC1.O=C(O)C(F)(F)F` [Example 61, (4-{2-[(1R)-1-Hydroxyethyl]-1H-imidazo[4,5-d]thieno[3,2-b]pyridin-1-yl}piperidin-1-yl)acetonitrile trifluoroacetate], greater than 10; to `C[C@@H](O)c1nc2cnc3ccsc3c2n1[C@H]1CCCN(C(=O)CCC#N)C1` [Example 58, 4-((3S)-3-{2-[(1R)-1-Hydroxyethyl]-1H-imidazo[4,5-d]thieno[3,2-b]pyridin-1-yl}piperidin-1-yl)-4-oxobutanenitrile], greater than 10.
Consider `C[C@@H](O)c1nc2cnc3ccsc3c2n1[C@H]1CC[C@H](CNS(C)(=O)=O)OC1` [Example 75, N-[((2R,5S)-5-{2-[(1R)-1-Hydroxyethyl]-1H-imidazo[4,5-d]thieno[3,2-b]pyridin-1-yl}tetrahydro-2H-pyran-2-yl)methyl]methanesulfonamide], for which the JAK2/JAK1 is reported as greater than 10.
`CC(CC(=O)N1CCC[C@H](n2c([C@@H](C)O)nc3cnc4ccsc4c32)C1)c1ccccc1` (stereo partly drawn) [Example 55, (1R)-1-{1-[(3S)-1-(3-Phenylbutanoyl)piperidin-3-yl]-1H-imidazo[4,5-d]thieno[3,2-b]pyridin-2-yl}ethanol]: the JAK2/JAK1 is greater than 10.
As for `CCc1nc2cnc3ccsc3c2n1[C@H]1CC[C@H](CC#N)CC1` [Example 47, [trans-4-(2-Ethyl-1H-imidazo[4,5-d]thieno[3,2-b]pyridin-1-yl)cyclohexyl]acetonitrile], the JAK2/JAK1 is greater than 10.
The value for `CCOC(=O)N1CCC[C@H](n2c([C@@H](C)O)nc3cnc4ccsc4c32)C1` [Example 50, Ethyl (3S)-3-{2-[(1R)-1-hydroxyethyl]-1H-imidazo[4,5-d]thieno[3,2-b]pyridin-1-yl}piperidine-1-carboxylate] was greater than 10; that for `C[C@@H](O)c1nc2cnc3ccsc3c2n1C1CCC(O)(CC#N)CC1` (single isomer, unassigned) [24 (first peak)] was greater than 10.
